Test results reported in paper PMC10599620, “Structure of a diatom photosystem II supercomplex containing a member of Lhcx family and dimeric FCPII” (Science Advances, 2023).

Legend:
[1] = target: T1, Tp-Lhcf11 (Thalassiosira pseudonana, UniProt B8BVI1); experiment: cryo-EM structure of native supercomplex, local map […] A; type: binding; details: site 305
T1 construct: native; Lhcf6-Lhcf11 heterodimer within purified PSII-FCPII supercomplex; with Fucoxanthin chlorophyll a/c light-harvesting protein Lhcf6
T1 sequence (B8BVI1 31-196): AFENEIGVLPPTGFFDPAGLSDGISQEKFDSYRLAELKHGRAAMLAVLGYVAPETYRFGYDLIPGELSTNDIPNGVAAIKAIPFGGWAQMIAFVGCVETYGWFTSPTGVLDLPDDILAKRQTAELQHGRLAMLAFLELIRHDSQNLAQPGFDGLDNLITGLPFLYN

[2] = target: T2, Tp-Lhcf7 homodimer (Thalassiosira pseudonana, UniProt B8BX93); experiment: cryo-EM structure of native supercomplex, […] A; type: binding; details: sites 301 and 302
T2 construct: native FCPII homodimer (Lhcf7_1, Lhcf7_2) within purified PSII-FCPII supercomplex
T2 sequence (B8BX93 31-194 limits assumed): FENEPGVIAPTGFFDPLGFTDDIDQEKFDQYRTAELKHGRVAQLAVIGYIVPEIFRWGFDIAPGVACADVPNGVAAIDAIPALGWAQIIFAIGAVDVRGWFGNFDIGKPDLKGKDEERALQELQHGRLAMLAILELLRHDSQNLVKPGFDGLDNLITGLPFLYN

[3] = target: T3, Tp-Lhcf7 (Thalassiosira pseudonana); experiment: cryo-EM structure; native PSII-FCPII supercomplex co-purified from T. pseudonana (cells grown under low light), in 50 mM Mes-NaOH pH 6.5, 10 mM NaCl, 5 mM CaCl2, 0.03% alpha-DDM, 2 mg Chl/ml; overall map 2.68 A, local map of the peripheral FCPII 3.19 A; details: both partners purified
T3 chain: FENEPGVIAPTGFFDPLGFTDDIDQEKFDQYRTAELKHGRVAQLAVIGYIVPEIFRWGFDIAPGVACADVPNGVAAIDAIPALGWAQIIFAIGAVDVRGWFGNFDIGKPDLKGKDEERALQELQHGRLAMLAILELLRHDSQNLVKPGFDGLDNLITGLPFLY

| Molecule | cryo-EM structure of native supercomplex, local map 3.19 A [1] | cryo-EM structure of native supercomplex, 2.68 A [2] | stoichiometry N [3] |
| --- | --- | --- | --- |
| CC(=O)O[C@H]1CC(C)(C)C(=C=C/C(C)=C/C=C/C(C)=C/C=C/C=C(C)/C=C/C=C(\C)C(=O)C[C@@]23O[C@]2(C)C[C@@H](O)CC3(C)C)[C@](C)(O)C1 [Fx] | two changes of pigment species at Chl c403 and Fx305 sites | There are two Fxs, Fx301 and Fx302, in Tp-Lhcf7 | – |
| Tp-Lhcf7 (natural protein, binds 12-13 Chl a, 2 fucoxanthins, 2 diadinoxanthins; homodimer in the supercomplex; limits are the residues modelled in 8IWH (Table S4) / binds 12-13 Chl a, 2 fucoxanthins, 2 diadinoxanthins …) FENEPGVIAPTGFFDPLGFTDDIDQEKFDQYRTAELKHGRVAQLAVIGYIVPEIFRWGFDIAPGVACADVPNGVAAIDAIPALGWAQIIFAIGAVDVRGWFGNFDIGKPDLKGKDEERALQELQHGRLAMLAILELLRHDSQNLVKPGFDGLDNLITGLPFLY | – | – | 2 |
